What is called aqueous solubility is the dissolved amount per volume that the medium holds. Low readings indicate a poorly soluble substance, high ones a readily soluble substance.

Here are results for 46 compounds from the Biogen ADME set (Fang et al. 2023).

In brackets after ≈: the same amount, converted by molar mass. Bounds are passed on as bounds.

For this data set the following is noted: for aqueous solubility: pH 6.8.

As for `c1nc(Nc2ccc3c(c2)OCCCO3)c2sccc2n1`, the intrinsic clearance, human liver microsomes is 92.1 mL/min/kg; the intrinsic clearance, rat liver microsomes was determined as 1570 mL/min/kg; the aqueous solubility was 51 µg/mL (≈ 170 µM).

For the compound `CCCS(=O)(=O)NC1CCN(Cc2ccc(C)c(OC)c2)CC1`, the MDR1-MDCK efflux ratio amounted to 1.43; the intrinsic clearance, human liver microsomes was 16.5 mL/min/kg; the intrinsic clearance, rat liver microsomes was determined as 798 mL/min/kg.

Regarding `CC(C)(C)c1ccc(C(O)CN2CCC(O)(c3ccc4c(c3)OCO4)CC2)cc1` (stereo not given), the MDR1-MDCK efflux ratio amounted to 0.698; the fraction unbound, human plasma turned out to be 0.0601; the intrinsic clearance, human liver microsomes turned out to be 45.8 mL/min/kg.

As for `Clc1ccc(Cc2nc(-c3cccnc3)no2)cc1`, the MDR1-MDCK efflux ratio was 0.458; the intrinsic clearance, human liver microsomes is 26.9 mL/min/kg; the intrinsic clearance, rat liver microsomes stood at 219 mL/min/kg; the aqueous solubility was found to be 16.5 µg/mL (≈ 60.7 µM).

In the case of `Cc1ncc(CCN2C(=O)NC3(CCCC3)C2=O)s1`, the MDR1-MDCK efflux ratio came to 91; the intrinsic clearance, human liver microsomes was no more than 4.74 mL/min/kg; the intrinsic clearance, rat liver microsomes amounted to 63.6 mL/min/kg.

Regarding `COC(=O)CC1=NN(c2ccc(OC)cc2)C(=O)/C1=C(/C)NCc1ccc(OC)cc1`, the MDR1-MDCK efflux ratio was 1.26; the intrinsic clearance, human liver microsomes came to 272 mL/min/kg; the intrinsic clearance, rat liver microsomes worked out at 503 mL/min/kg; the aqueous solubility stood at 2.28 µg/mL (≈ 5.38 µM).

Turning to `Cc1c(C(=O)N2CCC(C(=O)Nc3ccc4c(c3)OCO4)CC2)oc2c(F)cccc12`, the MDR1-MDCK efflux ratio came to 0.872; the intrinsic clearance, human liver microsomes was found to be 58.3 mL/min/kg; the intrinsic clearance, rat liver microsomes turned out to be 545 mL/min/kg; the aqueous solubility was 11 µg/mL (≈ 26 µM).

Regarding `O=c1c2ccccc2nnn1CCOc1ccc(F)cc1`, the MDR1-MDCK efflux ratio came out at 0.42; the intrinsic clearance, human liver microsomes is 26.1 mL/min/kg; the intrinsic clearance, rat liver microsomes was 124 mL/min/kg.

For `Cc1ccc(NC(=O)Cc2c[nH]c3ccccc23)cc1`, the aqueous solubility was determined as 5.6 µg/mL (≈ 21.2 µM).

For `Cc1n[nH]c(C)c1CCC(=O)N1CCOCC1`, the MDR1-MDCK efflux ratio turned out to be 13.5; the intrinsic clearance, human liver microsomes is no more than 4.74 mL/min/kg; the intrinsic clearance, rat liver microsomes is no more than 10.7 mL/min/kg; the aqueous solubility was 25.6 µg/mL (≈ 108 µM).

As to `Cc1ccc2c(CC(=O)N(C)Cc3nnc4n3CCC4)coc2c1C`, the MDR1-MDCK efflux ratio worked out at 66.1; the intrinsic clearance, human liver microsomes came to 36.5 mL/min/kg; the intrinsic clearance, rat liver microsomes was determined as 651 mL/min/kg; the aqueous solubility was 54.5 µg/mL (≈ 161 µM).

Consider `O=C(OCc1cc(Cl)ccn1)c1ccc2[nH]c(C(F)F)nc2c1`, for which the MDR1-MDCK efflux ratio turned out to be 1.37; the intrinsic clearance, human liver microsomes amounted to 515 mL/min/kg; the intrinsic clearance, rat liver microsomes was determined as 1520 mL/min/kg; the aqueous solubility amounted to 35 µg/mL (≈ 104 µM).

`NC(=O)c1ccc(Oc2ccc(C(=O)N3CCCCCC3)cc2)cc1`: the MDR1-MDCK efflux ratio stood at 4.9; the intrinsic clearance, human liver microsomes was 11.4 mL/min/kg; the intrinsic clearance, rat liver microsomes is 82.3 mL/min/kg; the aqueous solubility was 59.8 µg/mL (≈ 177 µM).

In turn, `Fc1ccc(-c2nnc(CN3CCC(c4c[nH]c5ccccc45)CC3)o2)cc1` registered an intrinsic clearance, human liver microsomes of 29.3 mL/min/kg; an intrinsic clearance, rat liver microsomes of 230 mL/min/kg; an aqueous solubility of 8 µg/mL (≈ 21.3 µM).

Regarding `COc1cc(OC)cc(-c2nnc(SCC(=O)Nc3cccc(C(=O)O)c3)s2)c1`, the MDR1-MDCK efflux ratio turned out to be 0.928; the intrinsic clearance, human liver microsomes was no more than 4.74 mL/min/kg; the intrinsic clearance, rat liver microsomes amounted to 48.3 mL/min/kg; the aqueous solubility stood at 39 µg/mL (≈ 90.4 µM).

As for `Fc1cccc(Cl)c1CNCCc1c[nH]c2ccccc12`, the MDR1-MDCK efflux ratio worked out at 0.457; the intrinsic clearance, human liver microsomes was found to be 298 mL/min/kg; the intrinsic clearance, rat liver microsomes worked out at 2150 mL/min/kg; the aqueous solubility was determined as 48.3 µg/mL (≈ 159 µM).

In the case of `O=C(Nc1nnc2n1CCCC2)c1cscn1`, the MDR1-MDCK efflux ratio worked out at 4.14; the intrinsic clearance, human liver microsomes is no more than 4.74 mL/min/kg; the intrinsic clearance, rat liver microsomes is no more than 10.7 mL/min/kg.

In the case of `Cc1nnc2ncc(-c3cccc4ccnn34)cn12`, the MDR1-MDCK efflux ratio is 0.468; the intrinsic clearance, human liver microsomes is 9.33 mL/min/kg; the intrinsic clearance, rat liver microsomes was 39.7 mL/min/kg.

`CC(C)(C)OC(=O)N1CCCN1C(=O)c1cc2cc(Cl)ccc2[nH]1` returned an intrinsic clearance, human liver microsomes of 47.2 mL/min/kg and an intrinsic clearance, rat liver microsomes of 687 mL/min/kg.

For `Cc1cc(-c2cccc3ccnn23)nc(N2CCCC2)n1`, the intrinsic clearance, human liver microsomes was 122 mL/min/kg and the intrinsic clearance, rat liver microsomes is 1600 mL/min/kg.

Take `CNc1ncc(CN(C)CCN2CCCCC2)cn1`: the MDR1-MDCK efflux ratio was 1.13; the intrinsic clearance, human liver microsomes was determined as 6.66 mL/min/kg; the intrinsic clearance, rat liver microsomes was 57.2 mL/min/kg.

Turning to `Cn1c(=O)c(C(=O)CSc2nc3ccccc3n2C)c(N)n(Cc2ccccc2)c1=O`, the MDR1-MDCK efflux ratio was 13; the intrinsic clearance, human liver microsomes amounted to 839 mL/min/kg; the intrinsic clearance, rat liver microsomes amounted to 2400 mL/min/kg.

Turning to `COc1cccc(CN2CCC(Cc3ccc(-c4cccnc4)cc3)(C(N)=O)CC2)c1`, the MDR1-MDCK efflux ratio worked out at 7.02; the intrinsic clearance, human liver microsomes came to 108 mL/min/kg; the intrinsic clearance, rat liver microsomes stood at 631 mL/min/kg; the aqueous solubility is 70.6 µg/mL (≈ 170 µM).

As for `O=C(Nc1nncs1)c1ccc(N2CCC3(CCCCC3)C2)nc1`, the MDR1-MDCK efflux ratio was determined as 0.729 and the aqueous solubility came to 0.66 µg/mL (≈ 1.92 µM).

For the compound `CN1CCc2ncnc(N3CCCN(c4nccs4)CC3)c2C1`, the MDR1-MDCK efflux ratio was 4.76; the intrinsic clearance, human liver microsomes turned out to be 23.3 mL/min/kg; the intrinsic clearance, rat liver microsomes is 131 mL/min/kg; the aqueous solubility was found to be 43.2 µg/mL (≈ 131 µM).

Consider `Cc1cccc2sc(NC(=O)c3cccnc3)nc12`, for which the MDR1-MDCK efflux ratio was found to be 0.329 and the aqueous solubility is 0.52 µg/mL (≈ 1.93 µM).

On to `Cc1nc(N)c2c(C(F)(F)F)cc(C3CCN(C(=O)Cc4ccc(F)cc4)CC3)nc2n1`, for which the MDR1-MDCK efflux ratio is 28.5; the intrinsic clearance, human liver microsomes amounted to 50.3 mL/min/kg; the intrinsic clearance, rat liver microsomes was 874 mL/min/kg; the aqueous solubility came out at 59.6 µg/mL (≈ 133 µM).

`COc1cc(-c2cn(C3CCc4c(F)cccc4N(CC(F)(F)F)C3=O)nn2)ccc1-n1cnc(C)c1` (stereo not given) had an intrinsic clearance, human liver microsomes of 26.1 mL/min/kg and an intrinsic clearance, rat liver microsomes of 49.2 mL/min/kg.

For the compound `COc1ccc(N2N=C(C)/C(=C(\C)Nc3ccc(S(N)(=O)=O)cc3)C2=O)cc1`, the MDR1-MDCK efflux ratio is 41.1; the intrinsic clearance, human liver microsomes turned out to be 8.92 mL/min/kg; the intrinsic clearance, rat liver microsomes turned out to be 39.3 mL/min/kg; the aqueous solubility was 20.9 µg/mL (≈ 52.1 µM).

As to `Cc1cc(NC(=O)C2CCN(c3ccncc3Cl)CC2)no1`, the MDR1-MDCK efflux ratio amounted to 0.457; the intrinsic clearance, human liver microsomes was 12.7 mL/min/kg; the intrinsic clearance, rat liver microsomes was determined as 186 mL/min/kg; the aqueous solubility was found to be 29 µg/mL (≈ 90.4 µM).

For `CCN1CCOC(C(=O)N2CCC(c3cn[nH]c3)CC2)C1` (stereo not given), the MDR1-MDCK efflux ratio came to 3.51 and the intrinsic clearance, human liver microsomes is no more than 4.74 mL/min/kg.

In the case of `CCN(Cc1ccccc1)C(=O)c1cccnc1N`, the MDR1-MDCK efflux ratio came to 0.65; the intrinsic clearance, human liver microsomes was no more than 4.74 mL/min/kg; the intrinsic clearance, rat liver microsomes was 174 mL/min/kg; the aqueous solubility stood at 36.7 µg/mL (≈ 144 µM).

For `Cc1ccc(C(=O)C2CCN(CC(=O)NC(=O)Nc3ccccc3)CC2)c(C)c1`, the MDR1-MDCK efflux ratio worked out at 0.559; the intrinsic clearance, human liver microsomes turned out to be 64.3 mL/min/kg; the intrinsic clearance, rat liver microsomes was determined as 936 mL/min/kg.

Take `CN(CC(=O)Nc1ccncc1)C1CCCC1`: the MDR1-MDCK efflux ratio was found to be 0.484; the intrinsic clearance, human liver microsomes is no more than 4.74 mL/min/kg; the intrinsic clearance, rat liver microsomes is 393 mL/min/kg; the aqueous solubility turned out to be 40.8 µg/mL (≈ 175 µM).

Regarding `Cc1ccc2c(c1)c1nc3ccccc3nc1n2CC(N)=O`, the MDR1-MDCK efflux ratio amounted to 0.833 and the aqueous solubility stood at 0.16 µg/mL (≈ 0.551 µM).

Take `O=c1c(-c2ccc(F)cc2)c(-c2ccncc2)[nH]n1-c1ccc(Cl)cc1`: the MDR1-MDCK efflux ratio worked out at 1.46; the intrinsic clearance, human liver microsomes was no more than 4.74 mL/min/kg; the intrinsic clearance, rat liver microsomes is no more than 10.7 mL/min/kg; the aqueous solubility is 21.8 µg/mL (≈ 59.6 µM).

Turning to `O=C(NCC1(c2ccccc2)CC1)c1cccnc1`, the MDR1-MDCK efflux ratio worked out at 0.757; the intrinsic clearance, human liver microsomes is no more than 4.74 mL/min/kg; the intrinsic clearance, rat liver microsomes worked out at 231 mL/min/kg; the aqueous solubility is 41.2 µg/mL (≈ 163 µM).

As to `c1ccc(CN2CCn3nccc3C2)cc1`, the MDR1-MDCK efflux ratio stood at 0.584; the intrinsic clearance, human liver microsomes is no more than 4.74 mL/min/kg; the intrinsic clearance, rat liver microsomes was 31 mL/min/kg; the aqueous solubility is 15.3 µg/mL (≈ 71.7 µM).

Consider `COC1(c2nc(Cc3ccccc3)no2)CCN(Cc2cnc(C)o2)CC1`, for which the MDR1-MDCK efflux ratio turned out to be 1.12; the intrinsic clearance, human liver microsomes was 18 mL/min/kg; the intrinsic clearance, rat liver microsomes came out at 285 mL/min/kg.

`CC1(C)[C@H]2CC=C(CN3CCC4(CCC(=O)N4)CC3)[C@@H]1C2`: the MDR1-MDCK efflux ratio was determined as 0.825; the intrinsic clearance, human liver microsomes was no more than 4.74 mL/min/kg; the intrinsic clearance, rat liver microsomes was found to be 196 mL/min/kg.

For the compound `CC(C)(O)CCn1cc2cc(NC(=O)c3ccn(C(F)F)n3)c(OCC3COC3)cc2n1`, the MDR1-MDCK efflux ratio turned out to be 11.8; the intrinsic clearance, human liver microsomes is no more than 4.74 mL/min/kg; the intrinsic clearance, rat liver microsomes was determined as 13.3 mL/min/kg.

In turn, `Cc1nc(C2CCN(c3ccc(F)cc3C#N)CC2)no1` showed an intrinsic clearance, human liver microsomes of 9.68 mL/min/kg and an intrinsic clearance, rat liver microsomes of 527 mL/min/kg.

For the compound `CO[C@@H](C(=O)Nc1cc2c(C)cc(=O)oc2cc1C)c1ccccc1`, the MDR1-MDCK efflux ratio stood at 1.15; the intrinsic clearance, human liver microsomes was 12.8 mL/min/kg; the intrinsic clearance, rat liver microsomes came out at 256 mL/min/kg; the aqueous solubility is 39.8 µg/mL (≈ 118 µM).

Turning to `COc1ccc(Cc2cccc(C3CCN(C(=O)C4CCCC4)CC3)n2)cc1`, the MDR1-MDCK efflux ratio is 0.66; the intrinsic clearance, human liver microsomes came out at 114 mL/min/kg; the intrinsic clearance, rat liver microsomes stood at 883 mL/min/kg; the aqueous solubility is 25.8 µg/mL (≈ 68.2 µM).

For the compound `O=C(NCCCNC(=O)c1cc2ccccc2[nH]1)c1ccc2c(c1)OCCO2`, the MDR1-MDCK efflux ratio turned out to be 6.74; the intrinsic clearance, human liver microsomes is 19.3 mL/min/kg; the intrinsic clearance, rat liver microsomes came out at 283 mL/min/kg; the aqueous solubility is 40.5 µg/mL (≈ 107 µM).

Regarding `COc1ccccc1-c1cc(C(C)(C)C)nc(-c2ncccn2)n1`, the MDR1-MDCK efflux ratio is 1.98; the intrinsic clearance, human liver microsomes amounted to 22.7 mL/min/kg; the intrinsic clearance, rat liver microsomes worked out at 169 mL/min/kg.
